From patent publication US12702654B2, “Compositions and methods for treating homocystinuria and other conditions using polyamines” (THE REGENTS OF THE UNIVERSITY OF COLORADO, priority 2020, dated 2026)

Columns and labels:
[1] = system: SHMT2; assay: Western blotting of hepatic SHMT2 expression; assay type: in vivo, mouse; conditions: HO mice, 30 g/l in drinking water ad libitum, one week
Description: (§1) To investigate the effects of these treatments upon the hepatic regulatory changes in enzyme expression induced by HCU, the human transgenic HO mouse model of HCU was used. In brief, experimental groups consisting of 8 HO mice on a C57BL/6J background and 8 C57BL/6J WT littermate control mice bred in house were used. Mice in both groups were male and aged between 3 and 4 months. Except where otherwise stated, all mice were maintained on standard chow. All diets were administered using a paired-feeding design to ensure isocaloric intake between all experimental groups and body weights were measured once per week. There was no significant difference in body weight between mice in any of the experimental groups. Betaine and taurine were in this example, both administered by dissolving these compounds in drinking water at 30 g/l ([…] 3% w/v) and were supplied ad libitum for one week. Treatment water was replenished twice per week.
(§2) Western blotting analysis of SAHH, MTHFR and SHMT2 expression was performed in liver samples from HO mice in the presence and absence of betaine or taurine treatment.

[2] = system: DHFR; assay: Western blotting of hepatic DHFR protein levels; assay type: in vivo, mouse; conditions: HO mice, betaine treated; not restored to control levels
Description: In other exemplary experiments, levels of DHFR were assessed using the HO mouse model in untreated and betaine treated mice. […] In addition, level of intensity of DHFR for wild type (WT), treated (HO+betaine) and untreated mice (HO) using the HCU mouse model was examined (FIG. 4B). It was noted that the level of DHFR in betaine treated mice was not restored to control levels and only about a 5-10% improvement was observed (FIG. 4B). (See FIGS. 4A-4B). As noted herein, Western blotting analysis of hepatic DHFR protein levels in WT and HO HCU mice. N=9 per group.

[3] = system: BHMT; assay: Hepatic BHMT protein during long-term betaine treatment; assay type: in vivo, mouse
[4] = system: mouse model of MTR deficient homocystinuria; assay: tHcy in mouse model of MTR deficient homocystinuria; assay type: in vivo; conditions: betaine supplementation
Description: In the following exemplary experiments, it was observed that betaine supplementation was limited as observed in a mouse model of MTR deficient homocystinuria. As noted in FIG. 1, homocystinuria can occur due to defects in the Hcy remethylation enzymes MTR or MTHFR. It was observed that supplementation of betaine in certain experiments with a mouse model of MTR deficient homocystinuria lead to reduction of tHcy of approximately 25% having little effect on the condition. This modest decrease in betaine mediated treatment of MTR deficient homocystinuria has also been observed in human patients with this form of homocystinuria.

[5] = system: MTHFR; assay: Western blotting of hepatic MTHFR expression; assay type: in vivo, mouse; conditions: HO mice, 30 g/l in drinking water ad libitum, one week
Description: as §1, §2

Q: Which results are given for `C[N+](C)(C)CC(=O)O` [betaine, N,N,N-trimethylglycine]?
A: HCU-induced repression of hepatic SHMT2 [1]: completely reversed; improvement of hepatic DHFR level [2]: 5-10%; BHMT protein levels [3]: significantly higher levels of BHMT protein; BHMT as share of total hepatic protein ([3]; approximately 2% without): 8-10%; reduction of tHcy [4]: approximately 25%; HCU-mediated induction of hepatic MTHFR expression [5]: completely reversed
